Experimental data: PubChem BioAssay (NCI)
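The compound was tested at five concentrations on cells cultured in 96-well plates, with a 48-hour exposure period. GI50: concentration for 50% inhibition of growth. The concentration for full growth arrest is given as TGI.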

Experiments:
Assay in all cases: NCI anticancer screen, dose series, 48 h
OVCAR-8 ovarian = test system: OVCAR-8 ovarian
HT29 colon = test system: HT29 colon
CAKI-1 renal = test system: CAKI-1 renal
SR leukemia = test system: SR leukemia
RPMI-8226 leukemia = test system: RPMI-8226 leukemia
SF-539 CNS = test system: SF-539 CNS
M14 melanoma = test system: M14 melanoma
NCI-H460 lung = test system: NCI-H460 lung
NCI-H522 lung = test system: NCI-H522 lung
T-47D breast = test system: T-47D breast
DU-145 prostate = test system: DU-145 prostate
786-0 renal = test system: 786-0 renal
MDA-MB-435 = test system: MDA-MB-435
MALME-3M melanoma = test system: MALME-3M melanoma
SK-OV-3 ovarian = test system: SK-OV-3 ovarian
MCF7 breast = test system: MCF7 breast
UO-31 renal = test system: UO-31 renal
MOLT-4 leukemia = test system: MOLT-4 leukemia
HOP-92 NSCLC = test system: HOP-92 NSCLC
NCI-H23 lung = test system: NCI-H23 lung
ACHN renal = test system: ACHN renal
TK-10 renal = test system: TK-10 renal
SK-MEL-2 melanoma = test system: SK-MEL-2 melanoma
UACC-62 melanoma = test system: UACC-62 melanoma
OVCAR-4 ovarian = test system: OVCAR-4 ovarian
K-562 leukemia = test system: K-562 leukemia
HCC-2998 colon = test system: HCC-2998 colon
NCI/ADR-RES ovarian = test system: NCI/ADR-RES ovarian
EKVX NSCLC = test system: EKVX NSCLC
SK-MEL-28 melanoma = test system: SK-MEL-28 melanoma
HS 578T breast = test system: HS 578T breast
SF-268 CNS = test system: SF-268 CNS
HCT-15 colon = test system: HCT-15 colon
HCT-116 colon = test system: HCT-116 colon
BT-549 breast = test system: BT-549 breast
U251 CNS = test system: U251 CNS
SK-MEL-5 melanoma = test system: SK-MEL-5 melanoma
CCRF-CEM leukemia = test system: CCRF-CEM leukemia
NCI-H226 lung = test system: NCI-H226 lung
OVCAR-5 ovarian = test system: OVCAR-5 ovarian
UACC-257 melanoma = test system: UACC-257 melanoma
HOP-62 NSCLC = test system: HOP-62 NSCLC
COLO 205 colon = test system: COLO 205 colon
SW-620 colon = test system: SW-620 colon
KM12 colon = test system: KM12 colon
A549 NSCLC = test system: A549 NSCLC
A498 renal = test system: A498 renal
RXF 393 renal = test system: RXF 393 renal
SF-295 CNS = test system: SF-295 CNS
OVCAR-3 ovarian = test system: OVCAR-3 ovarian
MDA-MB-468 breast = test system: MDA-MB-468 breast
LOX IMVI melanoma = test system: LOX IMVI melanoma
HL-60(TB) leukemia = test system: HL-60(TB) leukemia
SN12C renal = test system: SN12C renal
SNB-19 CNS = test system: SNB-19 CNS
SNB-75 CNS = test system: SNB-75 CNS
PC-3 prostate = test system: PC-3 prostate
IGROV1 ovarian = test system: IGROV1 ovarian
MDA-MB-231 breast = test system: MDA-MB-231 breast

How did the GI50 (OVCAR-8 ovarian) turn out when `COc1ccc(NC(=O)Cn2c(/C=C/c3cccc(Br)c3)nc3ccccc3c2=O)cc1` was run?
The GI50 was 10.5 µM.

And the TGI (OVCAR-8 ovarian)?
Its TGI is > 36 µM.

What about the GI50 (HT29 colon) of the same molecule?
The GI50 was > 36 µM.

And the TGI (HT29 colon)?
The TGI was > 36 µM.

And the GI50 (CAKI-1 renal)?
The GI50 was 14 µM.

And the TGI (CAKI-1 renal)?
The TGI was > 36 µM.

And the GI50 (SR leukemia)?
The GI50 was 1.06 µM.

What about the TGI (SR leukemia) of the same molecule?
Its TGI is > 36 µM.

What about the GI50 (RPMI-8226 leukemia) of the same molecule?
The GI50 was > 36 µM.

And the TGI (RPMI-8226 leukemia)?
Its TGI is > 36 µM.

What about the GI50 (SF-539 CNS) of the same molecule?
The GI50 was 2.94 µM.

What about the TGI (SF-539 CNS) of the same molecule?
The TGI was 8.06 µM.

What about the GI50 (M14 melanoma) of the same molecule?
The GI50 was 31.8 µM.

And the TGI (M14 melanoma)?
The TGI was > 36 µM.

What about the GI50 (NCI-H460 lung) of the same molecule?
The GI50 was 15.7 µM.

And the TGI (NCI-H460 lung)?
Its TGI is > 36 µM.

What about the GI50 (NCI-H522 lung) of the same molecule?
The GI50 was 17.6 µM.

What about the TGI (NCI-H522 lung) of the same molecule?
The TGI was > 36 µM.

What about the GI50 (T-47D breast) of the same molecule?
Its GI50 is > 36 µM.

And the TGI (T-47D breast)?
Its TGI is > 36 µM.

What about the GI50 (DU-145 prostate) of the same molecule?
Its GI50 is 13.5 µM.

What about the TGI (DU-145 prostate) of the same molecule?
Its TGI is > 36 µM.

And the GI50 (786-0 renal)?
The GI50 was 4.9 µM.

And the TGI (786-0 renal)?
Its TGI is 14.8 µM.

What about the GI50 (MDA-MB-435) of the same molecule?
Its GI50 is > 36 µM.

And the TGI (MDA-MB-435)?
Its TGI is > 36 µM.

What about the GI50 (MALME-3M melanoma) of the same molecule?
Its GI50 is 6.56 µM.

What about the TGI (MALME-3M melanoma) of the same molecule?
The TGI was 27 µM.

And the GI50 (SK-OV-3 ovarian)?
Its GI50 is 7.25 µM.

And the TGI (SK-OV-3 ovarian)?
Its TGI is 27.5 µM.

And the GI50 (MCF7 breast)?
Its GI50 is 8.56 µM.

What about the TGI (MCF7 breast) of the same molecule?
The TGI was > 36 µM.

What about the GI50 (UO-31 renal) of the same molecule?
Its GI50 is 4.41 µM.

What about the TGI (UO-31 renal) of the same molecule?
The TGI was 15.4 µM.

And the GI50 (MOLT-4 leukemia)?
Its GI50 is > 36 µM.

What about the TGI (MOLT-4 leukemia) of the same molecule?
The TGI was > 36 µM.

And the GI50 (HOP-92 NSCLC)?
The GI50 was 8.66 µM.

And the TGI (HOP-92 NSCLC)?
The TGI was 32.6 µM.

And the GI50 (NCI-H23 lung)?
The GI50 was 10.5 µM.

And the TGI (NCI-H23 lung)?
The TGI was > 36 µM.

What about the GI50 (ACHN renal) of the same molecule?
The GI50 was 1.75 µM.

And the TGI (ACHN renal)?
The TGI was 12.2 µM.

And the GI50 (TK-10 renal)?
Its GI50 is 5.4 µM.

What about the TGI (TK-10 renal) of the same molecule?
The TGI was 13.4 µM.

What about the GI50 (SK-MEL-2 melanoma) of the same molecule?
Its GI50 is > 36 µM.

What about the TGI (SK-MEL-2 melanoma) of the same molecule?
The TGI was > 36 µM.

And the GI50 (UACC-62 melanoma)?
Its GI50 is > 36 µM.

And the TGI (UACC-62 melanoma)?
Its TGI is > 36 µM.

And the GI50 (OVCAR-4 ovarian)?
The GI50 was 2.17 µM.

And the TGI (OVCAR-4 ovarian)?
Its TGI is 9.94 µM.

What about the GI50 (K-562 leukemia) of the same molecule?
The GI50 was > 36 µM.

What about the TGI (K-562 leukemia) of the same molecule?
Its TGI is > 36 µM.

And the GI50 (HCC-2998 colon)?
The GI50 was > 36 µM.

And the TGI (HCC-2998 colon)?
Its TGI is > 36 µM.

And the GI50 (NCI/ADR-RES ovarian)?
Its GI50 is 7.1 µM.

And the TGI (NCI/ADR-RES ovarian)?
The TGI was > 36 µM.

What about the GI50 (EKVX NSCLC) of the same molecule?
Its GI50 is > 36 µM.

And the TGI (EKVX NSCLC)?
Its TGI is > 36 µM.

And the GI50 (SK-MEL-28 melanoma)?
Its GI50 is > 36 µM.

And the TGI (SK-MEL-28 melanoma)?
The TGI was > 36 µM.

What about the GI50 (HS 578T breast) of the same molecule?
Its GI50 is 2.73 µM.

What about the TGI (HS 578T breast) of the same molecule?
Its TGI is 30.8 µM.

And the GI50 (SF-268 CNS)?
The GI50 was 13.9 µM.

And the TGI (SF-268 CNS)?
The TGI was > 36 µM.

And the GI50 (HCT-15 colon)?
The GI50 was > 36 µM.

And the TGI (HCT-15 colon)?
Its TGI is > 36 µM.

And the GI50 (HCT-116 colon)?
The GI50 was 5.67 µM.

What about the TGI (HCT-116 colon) of the same molecule?
The TGI was > 36 µM.

And the GI50 (BT-549 breast)?
The GI50 was 3.62 µM.

What about the TGI (BT-549 breast) of the same molecule?
The TGI was > 36 µM.

What about the GI50 (U251 CNS) of the same molecule?
The GI50 was 4.68 µM.

What about the TGI (U251 CNS) of the same molecule?
The TGI was 13.5 µM.

What about the GI50 (SK-MEL-5 melanoma) of the same molecule?
Its GI50 is > 36 µM.

And the TGI (SK-MEL-5 melanoma)?
Its TGI is > 36 µM.

What about the GI50 (CCRF-CEM leukemia) of the same molecule?
The GI50 was > 36 µM.

And the TGI (CCRF-CEM leukemia)?
The TGI was > 36 µM.

And the GI50 (NCI-H226 lung)?
The GI50 was 1.69 µM.

What about the TGI (NCI-H226 lung) of the same molecule?
The TGI was 9.64 µM.

What about the GI50 (OVCAR-5 ovarian) of the same molecule?
The GI50 was 15.6 µM.

What about the TGI (OVCAR-5 ovarian) of the same molecule?
The TGI was > 36 µM.

And the GI50 (UACC-257 melanoma)?
Its GI50 is > 36 µM.

What about the TGI (UACC-257 melanoma) of the same molecule?
The TGI was > 36 µM.

And the GI50 (HOP-62 NSCLC)?
The GI50 was 6.47 µM.

What about the TGI (HOP-62 NSCLC) of the same molecule?
Its TGI is 21 µM.

What about the GI50 (COLO 205 colon) of the same molecule?
The GI50 was > 36 µM.

And the TGI (COLO 205 colon)?
The TGI was > 36 µM.

What about the GI50 (SW-620 colon) of the same molecule?
Its GI50 is > 36 µM.

And the TGI (SW-620 colon)?
The TGI was > 36 µM.

What about the GI50 (KM12 colon) of the same molecule?
The GI50 was > 36 µM.

What about the TGI (KM12 colon) of the same molecule?
Its TGI is > 36 µM.

And the GI50 (A549 NSCLC)?
Its GI50 is 11.4 µM.

What about the TGI (A549 NSCLC) of the same molecule?
Its TGI is > 36 µM.

And the GI50 (A498 renal)?
Its GI50 is 9.71 µM.

And the TGI (A498 renal)?
The TGI was 32.5 µM.

And the GI50 (RXF 393 renal)?
The GI50 was 4.39 µM.

What about the TGI (RXF 393 renal) of the same molecule?
Its TGI is 17.6 µM.

What about the GI50 (SF-295 CNS) of the same molecule?
Its GI50 is 6.79 µM.

And the TGI (SF-295 CNS)?
The TGI was > 36 µM.

What about the GI50 (OVCAR-3 ovarian) of the same molecule?
Its GI50 is 10.6 µM.

What about the TGI (OVCAR-3 ovarian) of the same molecule?
The TGI was > 36 µM.

And the GI50 (MDA-MB-468 breast)?
The GI50 was 6.25 µM.

And the TGI (MDA-MB-468 breast)?
The TGI was > 36 µM.

And the GI50 (LOX IMVI melanoma)?
The GI50 was 3.02 µM.

And the TGI (LOX IMVI melanoma)?
Its TGI is > 36 µM.

What about the GI50 (HL-60(TB) leukemia) of the same molecule?
Its GI50 is > 36 µM.

And the TGI (HL-60(TB) leukemia)?
Its TGI is > 36 µM.

What about the GI50 (SN12C renal) of the same molecule?
The GI50 was 14.8 µM.

And the TGI (SN12C renal)?
The TGI was > 36 µM.

And the GI50 (SNB-19 CNS)?
Its GI50 is 11.4 µM.

What about the TGI (SNB-19 CNS) of the same molecule?
The TGI was > 36 µM.

What about the GI50 (SNB-75 CNS) of the same molecule?
Its GI50 is 0.801 µM.

What about the TGI (SNB-75 CNS) of the same molecule?
The TGI was 3.27 µM.

What about the GI50 (PC-3 prostate) of the same molecule?
Its GI50 is > 36 µM.

And the TGI (PC-3 prostate)?
Its TGI is > 36 µM.

And the GI50 (IGROV1 ovarian)?
The GI50 was > 36 µM.

What about the TGI (IGROV1 ovarian) of the same molecule?
The TGI was > 36 µM.

What about the GI50 (MDA-MB-231 breast) of the same molecule?
The GI50 was 1.93 µM.

And the TGI (MDA-MB-231 breast)?
Its TGI is 8.8 µM.
